Measurements reported in US12403121B2, “Anticancer rocaglamide derivatives” (priority 2018, dated 2025).

Legend:
[1] = test system: TC32 Ewing sarcoma, 143B osteosarcoma, and RD rhabdomyosarcoma cells; test: Western blots of treated sarcoma cells; format: cell-based
Procedure: FIGS. 7A-7C provide images showing DDR and Roc reduce multiple signaling proteins important for the growth and survival of sarcoma cells. Lysates prepared from TC32 Ewing sarcoma (A), 143B osteosarcoma (B), and RD rhabdomyosarcoma (C) cells were treated 1 and 2 days with the indicated concentrations of DDR or Roc and analyzed by Western blotting for the expression of various oncogenic driver proteins. GAPDH was used as a loading control.
Subconfluent cells were treated with the indicated doses of Roc or DDR for 24-72 hours and then harvested in cell lysis buffer (Cell Signaling Technology) containing 1 mM phenylmethylsufonylfluoride and protease inhibitor cocktail (Sigma-Aldrich). The protein content in cleared lysates was quantitated using the microBCA assay (ThermoFisher). Equal amounts of protein were run in sodium dodecyl sulfate-polyacrylamide gels and electrotransferred onto Immobilon-FL PVDF membranes (Millipore). The antibodies used were directed against: MDR1/ABCB1 (#13978), insulin-like growth factor-1 receptor β subunit (IGF-1Rβ; #9750), AKT (#9272), ERK1/2 (#4695), glyceraldehyde-3-phosphate dehydrogenase (GAPDH; #5174), caspase-3 (#9662), caspase-7 (#9492), cleaved caspase-7 (#9491), poly(ADP-ribose) polymerase (PARP; #9532), cleaved PARP (#5625), and phospho-histone H2A.X (pH2A.X[Ser′^39]; #9718; all from Cell Signaling Technology), NKX2.2 (sc-514161), LSD1 (sc-136174), and survivin (sc-17779; Santa Cruz Biotechnology), and FLI1 (ab15289) and cleaved caspase-3 (CC3; ab32042; Abeam). Protein bands were detected using IRDye® infrared fluorescent dye-labeled secondary antibodies and scanning on an Odyssey CLx imaging system (LI-COR Biosciences) using the appropriate fluorescent channel at a resolution of 84 μm.
To further examine the molecular mechanisms underlying the antiproliferative effects of rocaglamides, the inventors treated TC32 Ewing sarcoma, 143B osteosarcoma, and RD rhabdomyosarcoma cells with 1- or 2-IC50 dose of DDR or rocaglamide for 1-2 days followed by Western blotting for several known drivers of cell survival and proliferation. […] They also observed reduction of the IGF-1Rβ levels in rocaglamide-treated MPNST cells. In addition, Roc and DDR decreased the levels of AKT, ERKs, cyclin D1 and survivin in treated TC32, 143B, and RD cells (FIG. 7). Intriguingly, the oncogenic fusion protein EWS-FLI1, which acts as an aberrant transcription factor in Ewing sarcoma, was not affected in Roc- and DDR-treated TC32 Ewing sarcoma cells (FIG. 7A). […] However, the expression of lysine demethylase 1 (LSD1), which modulates EWS-FLI1 transcriptional activity (Sankar et al., Oncogene, 32:5089-5100 (2013)), and NKX2.2, an EWS-FL11-regulated gene necessary for oncogenic transformation (Smith et al., Cancer Cell, 9:405-416 (2006)), were diminished by these rocaglamides in TC32 cells (FIG. 7A).

[2] = test system: A673, TC32, 143B, MG-63, Saos2, OS17 and RD sarcoma cell lines; test: Cell proliferation in Ewing sarcoma, osteosarcoma and rhabdomyosarcoma cell lines; format: cell-based; details: two Ewing sarcoma, four osteosarcoma, one rhabdomyosarcoma cell lines
Procedure: The human MPNST cell lines, ST8814, STS26T, S462, T265, and luciferase-expressing ST8814-Luc, the human NF2-deficient meningioma cell line Ben-Men-1, the NJ2 mouse schwannoma cell line Sch10545, and primary human Schwann cells were propagated as previously described. Oblinger et al., Neuro-Oncol., 18:1265-1277 (2016). The Ewing sarcoma cell line A673 and the osteosarcoma cell lines, 143B and MG-63, were grown in Dulbecco's Modified Eagle's (DME) medium (Millipore-Sigma) supplemented with 10% fetal bovine serum (FBS; Atlanta Biological). The silvestrol-sensitive 697 and silvestrol-resistant 697-R pre-B acute lymphoblastic leukemia cells (Gupta et al., AAPS J., 13:357-364 (2011)), the Ewing sarcoma cell line TC32, the osteosarcoma cell lines, Saos2 and OS17, and the rhabdomyosarcoma cell line RD were cultivated in RPMI 1640 medium (Millipore-Sigma) plus 10% FBS.
(§1) Actively-growing cells were seeded in 96-well plates (Sarstedt) at 2,000 cells/well for Ben-Men-1 and RD cells, 30,000 cells/well for 697 and 697-R cells, and 4,000 cells/well for all other cell lines. The following day, cells were treated with various concentrations of each compound or and 0.05% of DMSO as the control for six days for MG-63 cells or three days for all remaining cell lines. Cell proliferation was assessed using resazurin assays and the IC50 value calculated. Cell cycle analysis was performed accordingly. Burns et al., Cancer Res., 73:792-803 (2013).
Since MPNSTs comprise only ˜2% of all sarcomas (Farid et al. Oncologist, 19:193-201 (2014)), the inventors expanded their testing of Roc and DDR to three other more prevalent sarcomas particularly in children and young adults: Ewing sarcoma, osteosarcoma, and rhabdomyosarcoma.

[3] = test system: STS26T and ST8814 MPNST cells; test: Flow cytometry cell cycle analysis; format: cell-based, human; details: one- or two-IC50 doses, three days
Procedure: as §1

[4] = test system: panel of MPNST, schwannoma, and meningioma cell lines; test: Side-by-side growth inhibition comparison with silvestrol in a cell line panel; format: cell-based; details: panel of MPNST, schwannoma, meningioma cell lines
Procedure: as §1
To search for compounds with better drug-like properties, the inventors conducted a side-by-side comparison of ten rocaglates lacking the dioxanyl ring with silvestrol for growth-inhibitory activity in a panel of MPNST, schwannoma, and meningioma cell lines, which they had previously shown to be sensitive to the antiproliferative action of silvestrol. […] The average IC50 value of each rocaglate was determined by 3-day resazurin proliferation assays. […] Further structure and activity comparison discerned some positions on the cyclopenta[b]benzofuran scaffold that affected the antiproliferative activity of rocaglates.

[5] = Maximum tolerated dose of Roc in mice; format: in vivo; details: every other day

COc1ccc([C@@]23Oc4cc(OC)cc(OC)c4[C@]2(O)[C@H](O)[C@H](C(=O)N(C)C)[C@H]3c2ccccc2)cc1 [Roc, rocaglamide]
levels of the β subunit of IGF-1R ([1]; 1- or 2-IC50 dose, 1-2 days, all three sarcoma cell lines): reliably reduced
levels of AKT, ERKs, cyclin D1 and survivin ([1]; TC32, 143B, and RD cells, 1- or 2-IC50 dose, 1-2 days): decreased
EWS-FLI1 fusion protein level ([1]; TC32 Ewing sarcoma cells): not affected
expression of LSD1 and NKX2.2 ([1]; TC32 cells): diminished
activity against sarcoma cell lines [2]: highly active
G2/M fraction [3]: marked increase in the GVM fraction
IC50 values relative to silvestrol [4]: slightly higher than silvestrol
maximum tolerated dose (MTD) ([5]; IP): 4 mg/kg
maximum tolerated dose (MTD) ([5]; oral gavage): 1.2 mg/kg
